Experimental data as given in patent US11932594B1, “8-((2-hydroxy-5-methylphenyl)diazenyl)naphthalene-1,3-disulfonic acid as an antioxidant compound” (KING FAISAL UNIVERSITY, priority 2023, dated 2024).

Experiment: DPPH (2,2-diphenyl-1-picrylhydrazyl) in vitro antioxidant test
Assay type: biochemical
Conditions: 517 nm; for Inhibition (radical scavenging inhibition): 0.2 mL DPPH (0.75 mM) in ethanol, 30 min incubation in the dark
Procedure: The antioxidant properties of the 8-((2-hydroxy-5-methylphenyl)diazenyl)naphthalene-1,3-disulfonic acid were studied by adding 0.2 mL DPPH (0.75 mM)) to compound 8-((2-hydroxy-5-methylphenyl)diazenyl)naphthalene-1,3-disulfonic acid (III) (304) in ethanol. After 30 min of incubation in the dark, the absorbance was read against a blank at 517 nm. Ascorbic acid (vitamin C) was used as standard antioxidants (positive control). A blank sample was prepared by 0.2 ml of DPPH in 3 ml ethanol. A negative control sample was run using ethanol instead of the sample. The radical scavenging inhibition was calculated using the following equation: […]

## Cc1ccc(O)c(/N=N/c2cccc3cc(S(=O)(=O)O)cc(S(=O)(=O)O)c23)c1 [Product III, 8-((2-hydroxy-5-methylphenyl)diazenyl)naphthalene-1,3-disulfonic acid]
  Inhibition (radical scavenging inhibition): 54%
DPPH in vitro test, vitamin C as positive control
  antioxidant potential compared to vitamin C: high potential as an antioxidant compared to vitamin C

## O=C1O[C@H]([C@@H](O)CO)C(O)=C1O [vit c, Ascorbic acid, reference compound]
  Inhibition (radical scavenging inhibition): 74%
